According to patent publication US8067372B2, “Modulation of angiogenesis by A-beta peptide fragments” (Alzheimer's Institute of America, Inc., priority 2005, dated 2011):
“Also recorded” adds a separate entry of the source.

What was measured:
[1] = tested on: Human Umbilical Vein Endothelial Cells (HUVEC); experiment: Capillary tube formation assay (HUVEC on Matrigel); type: cell-based; settings: for Total length of capillary tubes (percentage of control): ANOVA main effect: 0, 1, 5 and 10 μM doses
Protocol: All in-vitro experiments were performed using primary Human Umbilical Vein Endothelial Cells (HUVEC) at passages 3-4, purchased from American Tissue Type Culture Collection (ATCC, VA). Cells were cultured in F12K Medium (ATCC, VA) supplemented with 10% fetal bovine serum (Invitrogen, CA), 0.1 mg/ml Heparin and 0.03 mg/ml endothelial cell growth supplement (Sigma-Aldrich, MO). At all times, cells were maintained in a sterile cell culture incubator at 37° C. and 5% CO2.
HUVEC (7.5×10^4 cells/ml) in 500 μl of medium were seeded in 24-well plates, on top of a layer of Matrigel basement membrane matrix (Invitrogen, CA) in F12K medium (ATCC, VA) containing 4% serum (Invitrogen, CA), 0.1 mg/ml Heparin and 0.03 mg/ml endothelial cell growth supplement (Sigma-Aldrich, MO). Cells were incubated with peptides (or control conditions) for 24 hours. Control wells received the same volume of vehicle (DMSO) used to dilute the peptides. Network formation experiments were performed in triplicate, and at least 2 randomly chosen fields were photographed for each well using a 4× objective. Capillary length was measured using Image Pro Plus software (Media Cybernetic, Inc., MD).

[2] = tested on: VEGF-induced angiogenesis; experiment: Rat corneal micropocket assay; type: in vivo; settings: 0.5, 2.5 and 5.0 μg with 200 ng VEGF; 7 days
Protocol: The vascular growth response was measured seven days post implantation. The lengths and widths of vessel outgrowths were measured and the angiogenic index (AI) calculated using the formula L×W=AI. Rats were perfused with colloidal carbon, eyes enucleated and fixed in 10% buffered formalin. Corneas were removed under an Olympus dissecting microscope and mounted on glass slides with Crystal Mount media.

[3] = tested at 1, 5 and 10 μM, 24 hours

Substance | anti-angiogenic activity in capillary network formation [1, 3] | Total length of capillary tubes (percentage of control): ANOVA main effect [1] | also measured
LMVGGVVIA (listed as Homo sapiens) [Aβ34-42] | pro-angiogenic activity; also recorded: did not display any anti-angiogenic activity; also recorded: promoted angiogenesis in a dose dependent manner; also recorded: not active |  | 
heparin [reference compound] |  |  | reversal of inhibition of capillary tube formation induced by Aβ1-42 ([1]; heparin 500 μg/ml and 1 mg/ml added with Aβ1-42, P<0.001 vs Aβ alone): effectively reverse; also recorded: effectively reversed inhibition; inhibition of angiogenesis (capillary tube formation) by heparin alone ([1]; heparin alone, 0.5 or 1 mg/ml): slight inhibition
DAEFRHDSGYEVAAQALVFFAEDVGSNK (listed as Homo sapiens) [Aβ1-28 Mutant 2] |  | no main effect | 
YEVHHQK (listed as Homo sapiens) [Aβ10-16] | did not display any anti-angiogenic activity; also recorded: inactive |  | 
HHHQKLVFF (listed as Homo sapiens) [Fragment 1] |  | significant main effect | inhibition of VEGF-induced angiogenesis in vivo (Angiogenic Index) [2]: appears antiangiogenic in vivo; Total length of capillary tubes (percentage of control): post hoc effect ([1]; 1, 5 and 10 μM, P<0.005): significant effects
DAEFRHDSGYEVGGQGLVFFAEDVGSNK (listed as Homo sapiens) [Aβ1-28 Mutant 1] |  | no main effect | 
GSNKGAIIGLM (listed as Homo sapiens) [Aβ25-35] | not active |  | anti-angiogenic activity in capillary network formation ([1]; 5 μM): slightly active; anti-angiogenic activity in capillary network formation ([1]; 10 μM): not at 10 μM
YEVHHQKLVFFAEDVGSNKGAIIGLM (listed as Homo sapiens) [Aβ10-35] | most active |  | Total length of capillary tubes (percentage of control): post hoc difference from control ([1]; 5 and 10 μM doses, P<0.005, 24 hours, n≧8): significant differences
LVFFAEDVGSNK (listed as Homo sapiens) [Aβ17-28] | did not display any anti-angiogenic activity; also recorded: not active |  | 
